pIC50: −log10 of the molar value.
Columns and labels:
[1] = system: L1210; assay: cells; assay type: cell-based, mouse; details: Table 2
Description: (§1) A population of cells (>1×10^6 cells/mL as determined with a hemocytometer) was diluted with Dulbecco's Modified Eagle Medium (DMEM, Gibco) containing 10% fetal bovine serum (FBS, Gibco) to give a final concentration of 30,000 cells/mL. To each well of a 96-well plate (Corning® Costar®) was added 100 μL of the cell media solution with a multichannel pipet.
(§2) The test compounds were then added to the plate as follows: test compounds were diluted in DMSO to a concentration of 1 mM. 10-Fold serial dilutions in DMSO were next performed on a separate 96-well plate. Fresh culture media (100 μL) was added to each well of cells resulting in 200 μL of medium per well followed by 2 μL of each test agent. Compounds were tested in duplicate (n=2-8 times) at six concentrations between 0-1000 nM or 0-10000 nM. Following the addition of compound, cultures were incubated for an additional 72 hours.
(§3) The plates were incubated at 37° C. for 5 minutes (L1210) or 15 min (HCT116 and HCT116/VM46).

[2] = system: HCT116; assay: cells; assay type: cell-based, human; details: for pIC50: Table 2, read-out: IC50 HCT116; for potency relative to vinblastine (more potent): vinblastine-sensitive cell lines
Description: as §1, §2, §3

| SMILES | pIC50 [1] | pIC50 [2] | potency relative to vinblastine (more potent) [2] [fold] |
| --- | --- | --- | --- |
| CC[C@]1(NC(=O)c2ccc(OC(C)(C)C)cc2)C[C@H]2CN(CCc3c([nH]c4ccccc34)[C@@](C(=O)OC)(c3cc4c(cc3OC)N(C)[C@H]3[C@@](O)(C(=O)OC)[C@H](OC(C)=O)[C@]5(CC)C=CCN6CC[C@]43[C@@H]65)C2)C1 [Compound 75] | 9.22 | 9.22 | – |
| CCC1(NC(=O)c2ccc(Oc3ccccc3)cc2)CC2CN(CCc3c([nH]c4ccccc34)C(C(=O)OC)(c3cc4c(cc3OC)N(C)C3C(O)(C(=O)OC)C(OC(C)=O)C5(CC)C=CCN6CCC43C65)C2)C1 (stereo not shown) [Compound 76] | 8.28 | 8.19 | – |
| CC[C@]1(NC(=O)c2ccc(OCc3ccccc3)cc2)C[C@H]2CN(CCc3c([nH]c4ccccc34)[C@@](C(=O)OC)(c3cc4c(cc3OC)N(C)[C@H]3[C@@](O)(C(=O)OC)[C@H](OC(C)=O)[C@]5(CC)C=CCN6CC[C@]43[C@@H]65)C2)C1 [Compound 77] | 8.27 | 8.24 | – |
| CCC1(NC(=O)c2ccc(OC(F)(F)F)cc2)CC2CN(CCc3c([nH]c4ccccc34)C(C(=O)OC)(c3cc4c(cc3OC)N(C)C3C(O)(C(=O)OC)C(OC(C)=O)C5(CC)C=CCN6CCC43C65)C2)C1 (stereo not shown) [Compound 78] | 8.23 | 8.36 | – |
| CCC1(NC(=O)c2cccc(OC(F)(F)F)c2)CC2CN(CCc3c([nH]c4ccccc34)C(C(=O)OC)(c3cc4c(cc3OC)N(C)C3C(O)(C(=O)OC)C(OC(C)=O)C5(CC)C=CCN6CCC43C65)C2)C1 (stereo not shown) [Compound 79] | 8.32 | 8.23 | – |
| CC[C@]1(NC(=O)c2ccccc2OC(F)(F)F)C[C@H]2CN(CCc3c([nH]c4ccccc34)[C@@](C(=O)OC)(c3cc4c(cc3OC)N(C)[C@H]3[C@@](O)(C(=O)OC)[C@H](OC(C)=O)[C@]5(CC)C=CCN6CC[C@]43[C@@H]65)C2)C1 [Compound 80] | 6.35 | 6.32 | – |
| CCC1(NC(=O)c2ccc(OC(F)F)cc2)CC2CN(CCc3c([nH]c4ccccc34)C(C(=O)OC)(c3cc4c(cc3OC)N(C)C3C(O)(C(=O)OC)C(OC(C)=O)C5(CC)C=CCN6CCC43C65)C2)C1 (stereo not shown) [Compound 81] | 8.23 | 8.77 | – |
| CC[C@]1(NC(=O)c2ccc(OC(F)(F)F)c(OC)c2)C[C@H]2CN(CCc3c([nH]c4ccccc34)[C@@](C(=O)OC)(c3cc4c(cc3OC)N(C)[C@H]3[C@@](O)(C(=O)OC)[C@H](OC(C)=O)[C@]5(CC)C=CCN6CC[C@]43[C@@H]65)C2)C1 [Compound 83] | 8.89 | 8.77 | – |
| CCC1(NC(=O)c2ccc(SC)cc2)CC2CN(CCc3c([nH]c4ccccc34)C(C(=O)OC)(c3cc4c(cc3OC)N(C)C3C(O)(C(=O)OC)C(OC(C)=O)C5(CC)C=CCN6CCC43C65)C2)C1 (stereo not shown) [Compound 84] | 9.40 | 9.30 | – |
| CCC1(NC(=O)c2cccc(SC)c2)CC2CN(CCc3c([nH]c4ccccc34)C(C(=O)OC)(c3cc4c(cc3OC)N(C)C3C(O)(C(=O)OC)C(OC(C)=O)C5(CC)C=CCN6CCC43C65)C2)C1 (stereo not shown) [Compound 85] | 8.27 | 8.64 | – |
| CCSc1ccc(C(=O)NC2(CC)CC3CN(CCc4c([nH]c5ccccc45)C(C(=O)OC)(c4cc5c(cc4OC)N(C)C4C(O)(C(=O)OC)C(OC(C)=O)C6(CC)C=CCN7CCC54C76)C3)C2)cc1 (stereo not shown) [Compound 86] | 8.31 | 8.21 | – |
| CCC1(NC(=O)c2ccc(SC(C)C)cc2)CC2CN(CCc3c([nH]c4ccccc34)C(C(=O)OC)(c3cc4c(cc3OC)N(C)C3C(O)(C(=O)OC)C(OC(C)=O)C5(CC)C=CCN6CCC43C65)C2)C1 (stereo not shown) [Compound 87] | 8.37 | 8.34 | – |
| CCC1(NC(=O)c2ccc(S(=O)(=O)F)cc2)CC2CN(CCc3c([nH]c4ccccc34)C(C(=O)OC)(c3cc4c(cc3OC)N(C)C3C(O)(C(=O)OC)C(OC(C)=O)C5(CC)C=CCN6CCC43C65)C2)C1 (stereo not shown) [Compound 88] | 7.70 | 7.52 | – |
| CC[C@]1(NC(=O)c2cccc(S(=O)(=O)F)c2)C[C@H]2CN(CCc3c([nH]c4ccccc34)[C@@](C(=O)OC)(c3cc4c(cc3OC)N(C)[C@H]3[C@@](O)(C(=O)OC)[C@H](OC(C)=O)[C@]5(CC)C=CCN6CC[C@]43[C@@H]65)C2)C1 [Compound 89] | 7.40 | 7.52 | – |
| CC[C@]1(NC(=O)c2ccc(OC)c(F)c2)C[C@H]2CN(CCc3c([nH]c4ccccc34)[C@@](C(=O)OC)(c3cc4c(cc3OC)N(C)[C@H]3[C@@](O)(C(=O)OC)[C@H](OC(C)=O)[C@]5(CC)C=CCN6CC[C@]43[C@@H]65)C2)C1 [Compound 90] | 9.22 | 9.22 | – |
| CC[C@]1(NC(=O)c2ccc(OC)cc2F)C[C@H]2CN(CCc3c([nH]c4ccccc34)[C@@](C(=O)OC)(c3cc4c(cc3OC)N(C)[C@H]3[C@@](O)(C(=O)OC)[C@H](OC(C)=O)[C@]5(CC)C=CCN6CC[C@]43[C@@H]65)C2)C1 [Compound 91] | 8.21 | 8.19 | – |

| SMILES | pIC50 [1] | pIC50 [2] | potency relative to vinblastine (more potent) [2] [fold] |
| --- | --- | --- | --- |
| CC[C@]1(NC(=O)c2ccc(OC)c(Cl)c2)C[C@H]2CN(CCc3c([nH]c4ccccc34)[C@@](C(=O)OC)(c3cc4c(cc3OC)N(C)[C@H]3[C@@](O)(C(=O)OC)[C@H](OC(C)=O)[C@]5(CC)C=CCN6CC[C@]43[C@@H]65)C2)C1 [Compound 92] | 8.43 | 8.29 | – |
| CCC1(NC(=O)c2ccc(OC)c(Br)c2)CC2CN(CCc3c([nH]c4ccccc34)C(C(=O)OC)(c3cc4c(cc3OC)N(C)C3C(O)(C(=O)OC)C(OC(C)=O)C5(CC)C=CCN6CCC43C65)C2)C1 (stereo not shown) [Compound 93] | 8.29 | 8.21 | – |
| CCOc1ccc(C(=O)N[C@@]2(CC)C[C@H]3CN(CCc4c([nH]c5ccccc45)[C@@](C(=O)OC)(c4cc5c(cc4OC)N(C)[C@H]4[C@@](O)(C(=O)OC)[C@H](OC(C)=O)[C@]6(CC)C=CCN7CC[C@]54[C@@H]76)C3)C2)cc1Cl [Compound 94] | 8.38 | 8.21 | – |
| CCOc1ccc(C(=O)N[C@@]2(CC)C[C@H]3CN(CCc4c([nH]c5ccccc45)[C@@](C(=O)OC)(c4cc5c(cc4OC)N(C)[C@H]4[C@@](O)(C(=O)OC)[C@H](OC(C)=O)[C@]6(CC)C=CCN7CC[C@]54[C@@H]76)C3)C2)cc1Br [Compound 95] | 8.41 | 8.21 | – |
| CC[C@]1(NC(=O)c2cc(Cl)c(OC)c(Cl)c2)C[C@H]2CN(CCc3c([nH]c4ccccc34)[C@@](C(=O)OC)(c3cc4c(cc3OC)N(C)[C@H]3[C@@](O)(C(=O)OC)[C@H](OC(C)=O)[C@]5(CC)C=CCN6CC[C@]43[C@@H]65)C2)C1 [Compound 96] | 8.51 | 8.38 | – |
| CC[C@]1(NC(=O)c2ccc(OC)c(C)c2)C[C@H]2CN(CCc3c([nH]c4ccccc34)[C@@](C(=O)OC)(c3cc4c(cc3OC)N(C)[C@H]3[C@@](O)(C(=O)OC)[C@H](OC(C)=O)[C@]5(CC)C=CCN6CC[C@]43[C@@H]65)C2)C1 [Compound 97] | 9.22 | 9.15 | 10 |
| CCC1(NC(=O)c2ccc(C)c(OC)c2)CC2CN(CCc3c([nH]c4ccccc34)C(C(=O)OC)(c3cc4c(cc3OC)N(C)C3C(O)(C(=O)OC)C(OC(C)=O)C5(CC)C=CCN6CCC43C65)C2)C1 (stereo not shown) [Compound 98] | 8.38 | 8.48 | – |
| CCC1(NC(=O)c2cc(C)c(OC)c(C)c2)CC2CN(CCc3c([nH]c4ccccc34)C(C(=O)OC)(c3cc4c(cc3OC)N(C)C3C(O)(C(=O)OC)C(OC(C)=O)C5(CC)C=CCN6CCC43C65)C2)C1 (stereo not shown) [Compound 99] | 9.30 | 9.19 | 10 |
| CC[C@]1(NC(=O)c2cc(C)c(OCc3ccccc3)c(C)c2)C[C@H]2CN(CCc3c([nH]c4ccccc34)[C@@](C(=O)OC)(c3cc4c(cc3OC)N(C)[C@H]3[C@@](O)(C(=O)OC)[C@H](OC(C)=O)[C@]5(CC)C=CCN6CC[C@]43[C@@H]65)C2)C1 [Compound 100] | 7.52 | 7.52 | – |
| CCC1(NC(=O)c2ccc(C)c(N)c2)CC2CN(CCc3c([nH]c4ccccc34)C(C(=O)OC)(c3cc4c(cc3OC)N(C)C3C(O)(C(=O)OC)C(OC(C)=O)C5(CC)C=CCN6CCC43C65)C2)C1 (stereo not shown) [Compound 101] | 9.22 | 9.15 | – |
| CCC1(NC(=O)c2ccc(C)c(NC(=O)OC(C)(C)C)c2)CC2CN(CCc3c([nH]c4ccccc34)C(C(=O)OC)(c3cc4c(cc3OC)N(C)C3C(O)(C(=O)OC)C(OC(C)=O)C5(CC)C=CCN6CCC43C65)C2)C1 (stereo not shown) [Compound 102] | 8.22 | 8.15 | – |
| CCC1(NC(=O)c2ccc(C)c(NC(C)=O)c2)CC2CN(CCc3c([nH]c4ccccc34)C(C(=O)OC)(c3cc4c(cc3OC)N(C)C3C(O)(C(=O)OC)C(OC(C)=O)C5(CC)C=CCN6CCC43C65)C2)C1 (stereo not shown) [Compound 103] | 8.27 | 8.37 | – |
| CC[C@]1(NC(=O)c2ccc(N)c(C)c2)C[C@H]2CN(CCc3c([nH]c4ccccc34)[C@@](C(=O)OC)(c3cc4c(cc3OC)N(C)[C@H]3[C@@](O)(C(=O)OC)[C@H](OC(C)=O)[C@]5(CC)C=CCN6CC[C@]43[C@@H]65)C2)C1 [Compound 104] | 9.22 | 9.22 | – |
| CC[C@]1(NC(=O)c2ccc(NC(=O)OC(C)(C)C)c(C)c2)C[C@H]2CN(CCc3c([nH]c4ccccc34)[C@@](C(=O)OC)(c3cc4c(cc3OC)N(C)[C@H]3[C@@](O)(C(=O)OC)[C@H](OC(C)=O)[C@]5(CC)C=CCN6CC[C@]43[C@@H]65)C2)C1 [Compound 105] | 8.25 | 8.24 | – |
| CC[C@]1(NC(=O)c2cccc(N3CCOCC3)c2)C[C@H]2CN(CCc3c([nH]c4ccccc34)[C@@](C(=O)OC)(c3cc4c(cc3OC)N(C)[C@H]3[C@@](O)(C(=O)OC)[C@H](OC(C)=O)[C@]5(CC)C=CCN6CC[C@]43[C@@H]65)C2)C1 [Compound 106] | 8.32 | 8.55 | – |
